Patent publication US20170008928A1, “NOVEL PEPTIDES AND PEPTIDE DERIVATIVES AND USES THEREOF” (Novo Nordisk A/S, priority 2015, published 2017)
Read-outs that look alike come from different tables or passages of the source. Starred links: 1 amine or outer side, 2 acyl side, 3 side chain; linkers in the order of their positions; H or OH if unused. Non-standard residues stand in square brackets, D forms with d. Residues, ends and D or L forms follow the SMILES beside them. *: point of attachment. Phe(4-CH2SO3H) = N[C@@H](Cc1ccc(CS(=O)(=O)O)cc1)C(=O)O; sY = N[C@@H](Cc1ccc(OS(=O)(=O)O)cc1)C(=O)O; C18 diacid = O=C(O)CCCCCCCCCCCCCCCCC(=O)*; d(βAsp) = O=C(O)[C@@H](CC(=O)[*:2])N[*:1]; γGlu = O=C(O)[C@H](CCC(=O)[*:2])N[*:1]; Met(O2) = CS(=O)(=O)CC[C@H](N)C(=O)O; NMeF = CN[C@@H](Cc1ccccc1)C(=O)O; dNMeD = CN[C@H](CC(=O)O)C(=O)O; Nle = CCCC[C@H](N)C(=O)O; AEEA = NCCOCCOCC(=O)O

Tests used:
[1] = target: T1, human cholecystokinin-1 receptor (CCK-1R) (Homo sapiens, UniProt P32238); experiment: In vitro potency on CCK-1R, whole cell functional assay (IP1 accumulation, IP-One HTRF); format: cell-based
T1 construct: host or cells: 1321-N1 cells
T1 sequence (P32238 1-428): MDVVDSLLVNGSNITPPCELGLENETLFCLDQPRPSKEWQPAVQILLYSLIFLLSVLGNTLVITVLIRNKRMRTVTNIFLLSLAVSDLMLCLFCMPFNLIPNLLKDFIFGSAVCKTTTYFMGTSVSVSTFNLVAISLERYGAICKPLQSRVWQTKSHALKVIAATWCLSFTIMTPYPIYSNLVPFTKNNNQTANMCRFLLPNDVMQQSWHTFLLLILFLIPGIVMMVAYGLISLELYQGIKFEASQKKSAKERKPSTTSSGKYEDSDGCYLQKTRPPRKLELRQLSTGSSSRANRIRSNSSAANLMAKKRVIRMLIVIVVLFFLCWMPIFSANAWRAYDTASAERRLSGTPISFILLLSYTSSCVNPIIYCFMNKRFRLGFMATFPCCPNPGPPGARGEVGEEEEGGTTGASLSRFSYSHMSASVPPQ

[2] = target: T1, human cholecystokinin-1 receptor (CCK-1R); experiment: In vitro receptor binding to CCK-1R, SPA displacement of [125I]-CCK-8s from plasma membranes
Experimental: The in vitro binding affinity is a measure of the strength of attraction between a receptor and its ligand.
Displacement of radio ligand was measured as reduction in light emission from SPA beads.
The cells used in these assays were 1321-N1 cells stably expressing the CCK-1R or the CCK-2R (Perkin Elmer product numbers ES-530-A and ES-531-A, respectively see www.perkinelmer.com/Catalog/Product/ID/ES-530-A or -ES-531-A, respectively).
The cells were cultured in an incubator (95% RH (relative humidity), 5% (of standard atmospheric pressure) CO2, 37° C.) in cell culture medium (DMEM (Lonza catalogue BE-12-604F/U1), with 10% (v/v) Foetal Calf Serum (FCS, Gibco catalogue 16140-071), 1% (w/w) Sodium pyruvate (Gibco catalogue 11360-039), 500 μg/ml Geneticin® (G418) (Gibco catalogue 10131-027), 25 μg/ml Zeocin™ (Invitrogen catalogue R250-05), 1% (w/w) Pen/Strep (Gibco catalogue 15140-122)).
Plasma membranes were prepared by Evotec AG Hamburg by use of the ParrBomb (#4635, Parr Instrument Company). Cells were lysed with a lysis buffer (50 mM Tris, 2.5 mM EDTA, pH7) with added protease inhibitors (Complete Proteaseinhibitors EDTA-free (#05056489001, Roche), 1 tablet per 50 mL lysis buffer). The membrane fraction was separated by centrifugation. First, the cell lysate was centrifuged at 1000×g for 10 minutes at 4° C. The pellet was discarded and the supernatant was then centrifuged at 100.000×g for 30 minutes at 4° C. The supernatant was discarded and the pellet was re-suspended in 1 ml/5×10^8 cells ice cold membrane buffer (50 mM Tris, 320 mM Sucrose and Complete Proteaseinhibitors EDTA-free (#05056489001, Roche); pH7.4) and homogenised with dounce homogeniser. The protein concentration was determined using the Pierce™ BCA Protein Assay Kit according to kit manual, and the membrane preparation was adjust to the desired protein concentration with membrane buffer and aliquoted into pre-cooled tubes, snap-frozen in liquid nitrogen, and stored at −80° C.
CCK receptor binding assays were performed in 96-well Optiplates (Cat #6005290, PerkinElmer, Waltham, Mass., USA) in a total volume of 200 μl per well. CCK derivatives in 80% DMSO stock solutions of 800 μM were serially diluted […] in assay buffer (50 mM Tris/HCl, 4.5 mM MgCl2, […], 0.02% Tween 20, 0.25% ovalbumin, 0.1% pluronic F-68, pH 7.4) to final assay concentrations ranging from 10^−5 M (ten μM) to 10^−12 M (one pM).
Fifty μl of reference or test compounds were added to the Optiplates (using technical duplicates, i.e. two wells of each sample, one data point being the average of two wells), followed by addition of 150 μl of the mixture of SPA bead, radio ligand, and plasma membrane. The plates were sealed and incubated in the dark at +22° C. for 2 hours on a IKA MTS plate shaker (IKA-Werke D-79219 Staufen) set at 300 rpm and thereafter centrifuged at 1500 rpm for 10 minutes in a Heraeus Multifuge 3s centrifuge. SPA bead light emission was measured in a TopCount NXT (PerkinElmer) for 2 min/well after a delay of 60 min.
As a measure of compound affinity, calculations were performed in order to determine the half maximal inhibitory concentration (the IC50 value).
The data from the TopCounter were given as counts per minute (CPM). The CPM was plotted as a function of the concentration of compound. Dose-response curves were obtained, and IC50 values were calculated, by a nonlinear three-parameter logistic equation (log(agonist) vs response) with hillslope=−1, and shared top and bottom using the software programme GraphPad Prism v 6.0 (Graph Pad software, La Jolla, Calif., USA). The highest dose tested was 10^−5 M (1×10^7 pM).
The preference of a specific compound for the CCK-1 receptor, or the CCK-1R selectivity, may be defined as IC50 (CCK-2R)/IC50 (CCK-1R).
A minimum of three biological replicates was measured for each test compound on separate assay plates.

[3] = target: T2, human cholecystokinin-2 receptor (CCK-2R) (Homo sapiens, UniProt P32239); experiment: In vitro receptor binding to CCK-2R, SPA displacement of [125I]-CCK-8s from plasma membranes
T2 construct: host or cells: 1321-N1 cells (plasma membranes prepared by Evotec AG Hamburg)
T2 sequence (P32239 1-447): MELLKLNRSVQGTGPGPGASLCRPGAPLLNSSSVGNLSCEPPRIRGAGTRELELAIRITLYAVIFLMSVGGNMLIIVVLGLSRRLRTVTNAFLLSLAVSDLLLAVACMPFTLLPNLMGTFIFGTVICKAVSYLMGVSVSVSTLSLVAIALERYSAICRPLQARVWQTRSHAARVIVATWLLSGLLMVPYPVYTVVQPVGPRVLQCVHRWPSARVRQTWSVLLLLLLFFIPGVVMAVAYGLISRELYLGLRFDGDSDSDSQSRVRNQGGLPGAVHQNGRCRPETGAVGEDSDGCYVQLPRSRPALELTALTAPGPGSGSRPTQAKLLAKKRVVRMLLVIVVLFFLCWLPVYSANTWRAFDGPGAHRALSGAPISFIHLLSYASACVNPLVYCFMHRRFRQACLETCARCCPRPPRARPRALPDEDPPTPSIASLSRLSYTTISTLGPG

[4] = target: T2, human cholecystokinin-2 receptor (CCK-2R); experiment: In vitro potency on CCK-2R, whole cell functional assay (IP1 accumulation, IP-One HTRF); format: cell-based
[5] = displacement of [125I]-CCK-8s, plasma membranes of 1321-N1 cells expressing CCK-1R, read-out: IC50 (CCK-1R)
[6] = displacement of [125I]-CCK-8s, plasma membranes of 1321-N1 cells expressing CCK-2R, highest dose tested 1×10^7 pM, read-out: IC50 (CCK-2R)
[7] = 1321-N1 cells stably expressing CCK-2R, IP1 accumulation, highest dose tested 1×10^6 pM, read-out: EC50 (CCK-2R)

EC50 [4, 7]	SMILES	IC50 [2]	IC50 [3]	EC50 [4]	other results
	CCCC[C@H](NC(=O)[C@H](Cc1ccc(CS(=O)(=O)O)cc1)NC(=O)[C@H](CC(=O)O)NC(=O)COCCOCCNC(=O)[C@H](CCCCN)NC(=O)COCCOCCNC(=O)COCCOCCNC(=O)CC[C@H](NC(=O)CCCCCCCCCCCCCCCCC(=O)O)C(=O)O)C(=O)NCC(=O)N[C@@H](Cc1c[nH]c2ccccc12)C(=O)N[C@@H](CCCC)C(=O)N(C)[C@H](CC(=O)O)C(=O)N(C)[C@@H](Cc1ccccc1)C(N)=O [Example 19, 2-[2-[2-[[2-[2-[2-[[(4S)-4-Carboxy-4-(17-carboxyheptadecanoylamino)butanoyl]amino]ethoxy]ethoxy]acetyl]amino]ethoxy]ethoxy]acetyl-Lys-2-[2-(2-aminoethoxy)ethoxy]acetyl-Asp-Phe(4-sulfomethyl)-Nle-Gly-Trp-Nle-DMeAsp-MePhe-amide] ({C18 diacid-γGlu-AEEA-AEEA}-K[AEEA]D[Phe(4-CH2SO3H)][Nle]GW[Nle][dNMeD][NMeF]-NH2)				EC50 [1]: 0.21 nM
> 1000 nM	CCCC[C@H](NC(=O)[C@H](Cc1ccc(CS(=O)(=O)O)cc1)NC(=O)C[C@@H](NC(=O)COCCOCCNC(=O)COCCOCCNC(=O)CC[C@H](NC(=O)CCCCCCCCCCCCCCCCC(=O)O)C(=O)O)C(=O)O)C(=O)NCC(=O)N[C@@H](Cc1c[nH]c2ccccc12)C(=O)N[C@@H](CCCC)C(=O)N(C)[C@H](CC(=O)O)C(=O)N(C)[C@@H](Cc1ccccc1)C(N)=O [Example 27, 2-[2-[2-[[2-[2-[2-[[(4S)-4-Carboxy-4-(17-carboxyheptadecanoylamino)butanoyl]amino]ethoxy]ethoxy]acetyl]amino]ethoxy]ethoxy]acetyl-DbAsp-Phe(4-sulfomethyl)-Nle-Gly-Trp-Nle-DMeAsp-MePhe-amide] ({C18 diacid-γGlu-AEEA-AEEA-d(βAsp)}-[Phe(4-CH2SO3H)][Nle]GW[Nle][dNMeD][NMeF]-NH2)				IC50 [2, 5]: 0.13 nM; IC50 [3, 6]: > 10000 nM
	CC(C)C[C@H](NC(=O)[C@H](Cc1ccc(OS(=O)(=O)O)cc1)NC(=O)[C@H](CC(=O)O)NC(=O)COCCOCCNC(=O)COCCOCCNC(=O)CC[C@H](NC(=O)CCCCCCCCCCCCCCCCC(=O)O)C(=O)O)C(=O)NCC(=O)N[C@@H](Cc1c[nH]c2ccccc12)C(=O)N[C@@H](C)C(=O)N(C)[C@H](CC(=O)O)C(=O)N(C)[C@@H](Cc1ccccc1)C(N)=O [Example 40, 2-[2-[2-[[2-[2-[2-[[(4S)-4-Carboxy-4-(17-carboxyheptadecanoylamino)butanoyl]amino]ethoxy]ethoxy]acetyl]amino]ethoxy]ethoxy]acetyl-Asp-sTyr-Leu-Gly-Trp-Ala-DMeAsp-MePhe-amide] ({C18 diacid-γGlu-AEEA-AEEA}-D[sY]LGWA[dNMeD][NMeF]-NH2)	0.65 nM	> 10000 nM	880 nM	
	CC(C)C[C@H](NC(=O)[C@H](Cc1ccc(OS(=O)(=O)O)cc1)NC(=O)[C@@H](N)CC(=O)O)C(=O)NCC(=O)N[C@@H](Cc1c[nH]c2ccccc12)C(=O)N[C@@H](CCC(N)=O)C(=O)N(C)[C@H](CC(=O)O)C(=O)N(C)[C@@H](Cc1ccccc1)C(N)=O [Example 62, Asp-sTyr-Leu-Gly-Trp-Gln-DMeAsp-MePhe-amide] (H-D[sY]LGWQ[dNMeD][NMeF]-NH2)	0.075 nM	> 10000 nM	> 1000 nM	
	CC(C)C[C@H](NC(=O)[C@H](Cc1ccc(OS(=O)(=O)O)cc1)NC(=O)[C@@H](N)CC(=O)O)C(=O)NCC(=O)N[C@@H](Cc1c[nH]c2ccccc12)C(=O)N[C@H](C(=O)N(C)[C@H](CC(=O)O)C(=O)N(C)[C@@H](Cc1ccccc1)C(N)=O)C(C)C [Example 65, Asp-sTyr-Leu-Gly-Trp-Val-DMeAsp-MePhe-amide] (H-D[sY]LGWV[dNMeD][NMeF]-NH2)	0.62 nM	> 10000 nM	> 1000 nM	
	CCCC[C@H](NC(=O)[C@H](Cc1c[nH]c2ccccc12)NC(=O)CNC(=O)[C@H](CCCNC(=N)N)NC(=O)[C@H](Cc1ccc(OS(=O)(=O)O)cc1)NC(=O)[C@@H](N)CC(=O)O)C(=O)N(C)[C@H](CC(=O)O)C(=O)N(C)[C@@H](Cc1ccccc1)C(N)=O [Example 68, Asp-sTyr-Arg-Gly-Trp-Nle-DMeAsp-MePhe-amide] (H-D[sY]RGW[Nle][dNMeD][NMeF]-NH2)				EC50 ([1]; 1321-N1 cells stably expressing CCK-1R, IP1 accumulation, average of min. three replicates, read-out: EC50 (CCK-1R)): 0.21 nM
> 1000 nM	CCCC[C@H](NC(=O)[C@H](Cc1c[nH]c2ccccc12)NC(=O)CNC(=O)[C@H](CC(C)C)NC(=O)[C@H](Cc1ccc(OS(=O)(=O)O)cc1)NC(=O)[C@@H](N)CCC(=O)O)C(=O)N(C)[C@H](CC(=O)O)C(=O)N[C@@H](Cc1ccccc1)C(N)=O [Example 90, Glu-sTyr-Leu-Gly-Trp-Nle-DMeAsp-Phe-amide] (H-E[sY]LGW[Nle][dNMeD]F-NH2)				IC50 [2, 5]: 0.029 nM; IC50 [3, 6]: > 10000 nM

SMILES	EC50 [4, 7]	IC50 [2]	IC50 [3]	EC50 [4]	other results
CC(C)C[C@H](NC(=O)[C@H](Cc1ccc(OS(=O)(=O)O)cc1)NC(=O)[C@@H](N)CC(=O)O)C(=O)NCC(=O)N[C@@H](Cc1c[nH]c2ccccc12)C(=O)N[C@@H](CCS(C)(=O)=O)C(=O)N(C)[C@H](CC(=O)O)C(=O)N(C)[C@@H](Cc1ccccc1)C(N)=O [Example 63, Asp-sTyr-Leu-Gly-Trp-Met(O2)-DMeAsp-MePhe-amide] (H-D[sY]LGW[Met(O2)][dNMeD][NMeF]-NH2)	> 1000 nM	0.54 nM	> 10000 nM		
